Our source for the IC50 values is patent publication US20250206761A1, “HALOINDOLE MACROCYCLIC COMPOUNDS FOR THE TREATMENT OF CANCER” (Hoffmann-La Roche Inc., priority 2022, published 2025).

The target of assay [1] is KRAS G12D binding to BRAF (Homo sapiens (Human), UniProt P01116+P62937, G12D). The assay can be described thus: KRAS-BRAF with CYPA (500 nM) interaction assay (TR-FRET), G12D. It is filed as biochemical. As for the experimental part: (§1) In this example, TR-FRET was also used to measure the compound or compound-CYPA dependent disruption of the KRAS G12C-BRAF complex. This protocol was also used to measure disruption of KRAS G12D or KRAS G12V binding to BRAF by a compound of the invention, respectively. In assay buffer containing 25 mM HEPES PH=7.4 (4-(2-hydroxyethyl)-1-piperazineethanesulfonic acid, Thermo, 15630080), 0.002% Tween20, 0.1% BSA, 100 mM NaCl, 5 mM MgCl2, 10 μM GMPPNP (Guanosine 5′-[β,γ-imido]triphosphate trisodium salt hydrate, Sigma, G0635), […] 384-well assay plate at final concentrations of 50 nM, 6.25 nM and 1 nM, respectively. Compound was present in plate wells as a 16-point 3-fold dilution series starting at a final concentration of 10 μM and incubated for 3 hours. A mixture of MAb Anti-6His-XL665 (Cisbio, 61HISXLB) and Mab anti-GST-TB cryptate (Cisbio, 61GSTTLB) was then added at a final concentration of 6.67 nM and 0.21 nM, respectively, and the plate was incubated for an additional 1.5 hours. TR-FRET signal was read on a PHERstar FSX microplate reader (Ex320 nm, Em 665/615 nm). Compounds that facilitate disruption of the KRAS-BRAF complex were identified as those eliciting a decrease in the TR-FRET ratio relative to DMSO control wells.
KRAS G12D binding to BRAF, sequence (P01116-2 other isoform, or with tags, fused parts or gaps G12D): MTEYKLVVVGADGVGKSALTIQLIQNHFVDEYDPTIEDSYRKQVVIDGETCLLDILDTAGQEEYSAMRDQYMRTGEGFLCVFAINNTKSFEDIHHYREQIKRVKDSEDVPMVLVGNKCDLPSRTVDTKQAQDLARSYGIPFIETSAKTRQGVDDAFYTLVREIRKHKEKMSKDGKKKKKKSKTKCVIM
KRAS G12D binding to BRAF, sequence (P62937 whole entry): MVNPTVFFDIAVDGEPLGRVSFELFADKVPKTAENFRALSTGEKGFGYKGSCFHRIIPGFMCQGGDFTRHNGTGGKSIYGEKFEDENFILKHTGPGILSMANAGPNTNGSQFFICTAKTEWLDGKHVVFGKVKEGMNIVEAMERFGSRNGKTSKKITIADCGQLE

Another assay concerns the target KRAS G12C-BRAF complex (Homo sapiens (Human), UniProt P01116+P62937, G12C). The assay can be described thus: KRAS-BRAF with CYPA (500 nM) interaction assay (TR-FRET), G12C. It is filed as biochemical. The procedure: as §1
The test system of another assay is SW620 (ATCC-CCL-227). The assay can be described thus: Cell viability assay, G12V (SW620). As to conditions: KRAS cell viability, SW620, 72 hrs, Cell Counting Kit-8. Type of assay: cell-based, human. The procedure: (§2) The purpose of this cellular assay was to determine the effects of test compounds on the proliferation of human cancer cell lines NCI-H358 (ATCC-CRL5807) cells, AGS (ATCC-CRL-1739) cells, SW620 (ATCC-CCL-227) over a 3-day treatment period by quantifying the amount of NADPH present at endpoint using Cell Counting Kit-8.
(§3) Cells were seeded at 5,000 cells/well (NCI-H358), 2,000 cells/well (AGS) 2,000 cells/well (SW620) in 96-well assay plates (Corning-3699) and incubated overnight. On the day of the assay, diluted compounds were then added in a final concentration of 0.5% DMSO. After 72 hrs incubation, a tenth of the volume of cell counting kit 8 (Dnjindo-CK04) was added into each well. Read the signal (OD450 minus OD650) using EnVision after 2 hrs incubation. IC50 was determined by fitting a 4-parameter sigmoidal concentration response model.

Assay [2] concerns the target KRAS G12V binding to BRAF (Homo sapiens (Human), UniProt P01116+P62937, G12V). The assay can be described thus: KRAS-BRAF with CYPA (500 nM) interaction assay (TR-FRET), G12V. Type of assay: biochemical. The procedure:
In this example, TR-FRET was also used to measure the compound or compound-CYPA dependent disruption of the KRAS G12C-BRAF complex. This protocol was also used to measure disruption of KRAS G12D or KRAS G12V binding to BRAF by a compound of the invention, respectively. In assay buffer containing 25 mM HEPES PH=7.4 (4-(2-hydroxyethyl)-1-piperazineethanesulfonic acid, Thermo, 15630080), 0.002% Tween20, 0.1% BSA, 100 mM NaCl, 5 mM MgCl2, 10 μM GMPPNP (Guanosine 5′-[β,γ-imido]triphosphate trisodium salt hydrate, Sigma, G0635), […], GMPPNP loaded 6His-KRAS proteins, and […], 6.25 nM and 1 nM, respectively. Compound was present in plate wells as a 16-point 3-fold dilution series starting at a final concentration of 10 μM and incubated for 3 hours. A mixture of MAb Anti-6His-XL665 (Cisbio, 61HISXLB) and Mab anti-GST-TB cryptate (Cisbio, 61GSTTLB) was then added at a final concentration of 6.67 nM and 0.21 nM, respectively, and the plate was incubated for an additional 1.5 hours. TR-FRET signal was read on a PHERstar FSX microplate reader (Ex320 nm, Em 665/615 nm). Compounds that facilitate disruption of the KRAS-BRAF complex were identified as those eliciting a decrease in the TR-FRET ratio relative to DMSO control wells.

For assay [3], the system named is AGS (ATCC-CRL-1739) cells. The experiment in a line: Cell viability assay, G12D (AGS). Type of assay: cell-based, human. As to conditions: KRAS cell viability, 72 hrs, Cell Counting Kit-8. The procedure: as §2, §3
The test system of assay [4] is phosphorylation of ERK, KRAS G12C in NCJ-H358 cells. The assay can be described thus: pERK inhibition assay, KRAS G12C. Type of assay: cell-based, human. The conditions noted are these: Homo sapiens, 4 hours. As for the experimental part:
(§4) This assay is to measure the ability of test compounds in inhibiting the phosphorylation of ERK, the downstream signaling of KRAS G12C in NCJ-H358 cells, KRAS G12D in AGS cells, and KRAS G12V in SW620. NCJ-H358 (ATCC-CRL5807) cells, AGS (ATCC-CRL-1739) cells, SW620 (ATCC-CCL-227) cells were all grown and maintained using RPMI-1640 medium (Thermo Fisher Scientific) with 10% fetal bovine serum and 1% penicillin/streptomycin. On the day prior to compound addition, cells were plated in tissue culture-treated 96 well plates (Corning-3699) at a density of 30,000 cell/well, 20,000 cell/well, 30,000 cell/well for NCJ-H358, AGS and SW620 respectively, and allowed for attachment overnight. Diluted compounds were then added in a final concentration of 0.5% DMSO. After 4 hours of incubation, the medium was removed, 100 μL of 4% formaldehyde was added, and the assay plates were incubated at room temperature for 20 minutes. The plates were then washed once with phosphate buffered saline (PBS), and permeabilized with 100 μL of chilled methanol for 10 minutes. Non-specific antibody binding to the plates was blocked using 50 μL 1×BSA blocking buffer (Thermo-37520, 10-fold dilution by Phosphate-Buffered Saline Tween (PBST) for at least 1 hour at room temperature.
(§5) The amount of phosphor-ERK was determined using an antibody specific for phosphorylated form of ERK. Primary antibody (pERK, CST-4370, Cell Signaling Technology) was diluted 1:300 in blocking buffer, with 50 μL aliquoted to each well, and incubated overnight at 4′° C. Cells was washed five times for 5 minutes with PBST. Secondary antibody ([…] anti-rabbit IgG, CST-7074, Cell Signaling Technology) was diluted 1:1000 in blocking buffer, and 50 μL was added to each well and incubated 1-2 hrs at room temperature. Cells was washed 5 times for 5 minutes with PBST, 100 μL TMB ELISA substrate (abcam-ab171523) were added and gently shake for 20 minutes. 50 μL stop solution (abcam-ab171529) were added, and then read the signal (OD450) by EnVision.
(§6) IC50 was determined by fitting a 4-parameter sigmoidal concentration response model.

The test system of assay [5] is phosphorylation of ERK, KRAS G12V in SW620. The assay can be described thus: pERK inhibition assay, KRAS G12V. Type of assay: cell-based, human. As to conditions: Homo sapiens, SW-620, SW620, 4 hours. As for the experimental part: as §4, §5, §6

Structures are written as SMILES.

KRAS G12C-BRAF complex, sequence (P01116-2 other isoform, or with tags, fused parts or gaps G12C): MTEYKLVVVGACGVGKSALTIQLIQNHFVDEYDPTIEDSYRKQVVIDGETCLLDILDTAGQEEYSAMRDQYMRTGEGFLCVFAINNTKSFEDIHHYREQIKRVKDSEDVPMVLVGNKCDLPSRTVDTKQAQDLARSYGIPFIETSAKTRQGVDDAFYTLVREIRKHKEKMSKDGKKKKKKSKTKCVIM
KRAS G12C-BRAF complex, sequence (P62937 whole entry): as the sequence (P62937 whole entry) above
KRAS G12V binding to BRAF, sequence (P01116-2 other isoform, or with tags, fused parts or gaps G12V): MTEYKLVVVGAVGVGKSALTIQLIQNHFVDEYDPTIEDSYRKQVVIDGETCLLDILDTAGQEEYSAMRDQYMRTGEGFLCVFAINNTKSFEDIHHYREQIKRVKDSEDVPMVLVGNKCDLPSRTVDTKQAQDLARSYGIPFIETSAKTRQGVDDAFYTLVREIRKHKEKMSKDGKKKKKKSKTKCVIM
KRAS G12V binding to BRAF, sequence (P62937 whole entry): as the sequence (P62937 whole entry) above

For `CO[C@@H](C)c1ncc(N2CCN(C)CC2)cc1-c1c2c3cc(c(F)cc3n1CC(F)(F)F)-c1csc(n1)C[C@H](NC(=O)[C@H](C(C)C)N1CCC3(CN(C(=O)[C@H](F)Cl)C3)C1=O)C(=O)N1CCC[C@H](N1)C(=O)OCC(C)(C)C2` (atropisomer, axis not shown) [Example 25, (2S)-2-[2-[(2R)-2-chloro-2-fluoro-acetyl]-5-oxo-2,6-diazaspiro[3.4]octan-6-yl]-N-[(7S,13S)-24-fluoro-20-[2-[(1S)-1-methoxyethyl]-5-(4-methylpiperazin-1-yl)-3-pyridyl]-17,17-dimethyl-8,14-dioxo-21-(2,2,2-trifluoroethyl)-15-oxa-4-thia-9,21,27,28-tetrazapentacyclo[17.5.2.1^2,5.1^9,13.0^22,26]octacosa-1(25),2,5(28),19,22(26),23-hexaen-7-yl]-3-methyl-butanamide], the IC50 in assay [1] was determined as 6060 nM; at KRAS G12C-BRAF complex, 98 nM; in the assay on SW620 (ATCC-CCL-227) (Homo sapiens, SW-620) it was 89 nM; in assay [2] it was 3540 nM; in assay [3] (Homo sapiens), 1650 nM.

For the compound `CCn1c(-c2cc(N3CCOCC3)cnc2[C@H](C)OC)c2c3cc(c(F)cc31)-c1csc(n1)C[C@H](NC(=O)[C@H](C(C)C)N1CCC3(CCN(C(=O)[C@H](F)Cl)CC3)C1=O)C(=O)N1CCC[C@H](N1)C(=O)OCC(C)(C)C2` (atropisomer, axis not shown; (M)) [Example 50, (2S)-2-[8-[(2R)-2-chloro-2-fluoro-acetyl]-1-oxo-2,8-diazaspiro[4.5]decan-2-yl]-N-[(7S,13S)-21-ethyl-24-fluoro-(20M)-20-[2-[(1S)-1-methoxyethyl]-5-morpholino-3-pyridyl]-17,17-dimethyl-8,14-dioxo-15-oxa-4-thia-9,21,27,28-tetrazapentacyclo[17.5.2.1^2,5.1^9,13.0^22,26]octacosa-1(25),2,5(28),19,22(26),23-hexaen-7-yl]-3-methyl-butanamide], the IC50 is 6 nM in assay [4]; greater than 10000 nM in assay [1]; 124 nM at KRAS G12C-BRAF complex; 6 nM in assay [5]; greater than 10000 nM in assay [2].

Turning to `CCn1c(-c2cc(N3CCN(C)CC3)cnc2[C@H](C)OC)c2c3cc(c(F)cc31)-c1csc(n1)C[C@H](NC(=O)[C@H](C(C)C)N1CCC[C@]3(CCN(C(=O)[C@@H](F)Cl)C3)C1=O)C(=O)N1CCC[C@H](N1)C(=O)OCC(C)(C)C2` [Example 23, (2S)-2-[(5S)-2-[(2S)-2-chloro-2-fluoro-acetyl]-6-oxo-2,7-diazaspiro[4.5]decan-7-yl]-N-[(7S,13S)-21-ethyl-24-fluoro-(20M)-20-[2-[(1S)-1-methoxyethyl]-5-(4-methylpiperazin-1-yl)-3-pyridyl]-17,17-dimethyl-8,14-dioxo-15-oxa-4-thia-9,21,27,28-tetrazapentacyclo[17.5.2.1^2,5.1^9,13.0^22,26]octacosa-1(25),2,5(28),19,22(26),23-hexaen-7-yl]-3-methyl-butanamide], the half-maximal inhibitory concentration (IC50) amounted to 2080 nM in assay [1]; 64 nM against KRAS G12C-BRAF complex; 90 nM with SW620 (ATCC-CCL-227); 5390 nM in assay [2]; 322 nM in assay [3].

For `CCn1c(-c2cc(N3CCN(CC(F)(F)F)CC3)cnc2[C@H](C)OC)c2c3cc(c(F)cc31)-c1csc(n1)C[C@H](NC(=O)[C@H](C(C)C)N1CCCC3(CCN(C(=O)[C@H](F)Cl)CC3)C1=O)C(=O)N1CCC[C@H](N1)C(=O)OCC(C)(C)C2` (atropisomer, axis not shown; (M)) [Example 48, (2S)-2-[9-[(2R)-2-chloro-2-fluoro-acetyl]-1-oxo-2,9-diazaspiro[5.5]undecan-2-yl]-N-[(7S,13S)-21-ethyl-24-fluoro-(20M)-20-[2-[(1S)-1-methoxyethyl]-5-[4-(2,2,2-trifluoroethyl)piperazin-1-yl]-3-pyridyl]-17,17-dimethyl-8,14-dioxo-15-oxa-4-thia-9,21,27,28-tetrazapentacyclo[17.5.2.1^2,5.1^9,13.0^22,26]octacosa-1(25),2,5(28),19,22(26),23-hexaen-7-yl]-3-methyl-butanamide], the IC50 is 2 nM in assay [4]; 1030 nM in assay [1]; 47 nM at KRAS G12C-BRAF complex; 12 nM in assay [5]; greater than 10000 nM in assay [2].

Regarding `CCn1c(-c2cc(N3CCN(C)CC3)cnc2[C@H](C)OC)c2c3cc(c(F)cc31)-c1csc(n1)C[C@H](NC(=O)[C@H](COC1CN(C(=O)[C@H](F)Cl)C1)C(C)C)C(=O)N1CCC[C@H](N1)C(=O)OCC(C)(C)C2` (atropisomer, axis not shown; (M)) [Example 41, (2S)-2-[[1-[(2R)-2-chloro-2-fluoro-acetyl]azetidin-3-yl]oxymethyl]-N-[(7S,13S)-21-ethyl-24-fluoro-(20M)-20-[2-[(1S)-1-methoxyethyl]-5-(4-methylpiperazin-1-yl)-3-pyridyl]-17,17-dimethyl-8,14-dioxo-15-oxa-4-thia-9,21,27,28-tetrazapentacyclo[17.5.2.1^2,5.1^9,13.0^22,26]octacosa-1(25),2,5(28),19,22(26),23-hexaen-7-yl]-3-methyl-butanamide], the IC50 in assay [4] was 107 nM; in assay [1] it was greater than 10000 nM; at KRAS G12C-BRAF complex, 88 nM; in assay [5] it was 199 nM; in assay [2] it was 1170 nM.
